Laboratory results as given in patent publication US8530385B2, “Herbicidal formulations for combinations of dimethylamine and potassium salts of glyphosate” (Donaghys Industries Limited, priority 2007, dated 2013).

Settings: laboratory conditions; fully loaded with surfactant
Text: Dimethylamine is a flammable gas and generally provided as an aqueous solution at concentrations of about 40%. As such, it is difficult to obtain highly concentrated salts of glyphosate using only DMA solution as starting material.
In contrast to IPA, DMA has a […] flash and boiling point and supplied as 40% solution.

For `CNC.O=C(O)CNCP(=O)(O)O` [DMA glyphosate, dimethylamine salt of glyphosate], the “maximum stable fully loaded concentration of glyphosate” value was 560 gae/L.
